Key:
A549 [1] = test: Induction of apoptosis in human A549 cells assessed as early apoptotic cells at 5 uM after 6 hrs by Annexin-V-FITC/Propidium iodide staining based flow cytometric analysis (reference value: 3.83 +/- 0.49%); type: functional
A549 [2] = test: Induction of apoptosis in human A549 cells assessed as viable cells at 10 uM after 48 hrs by Annexin-V-FITC/Propidium iodide staining based flow cytometric analysis (reference value: 92.46 +/- 4.23%); type: functional; conditions: A549, 48 h, read-out: Activity
A549 [3] = test: Induction of apoptosis in human A549 cells assessed as viable cells at 10 uM after 6 hrs by Annexin-V-FITC/Propidium iodide staining based flow cytometric analysis (reference value: 95.48 +/- 2.03%); type: functional; conditions: A549, 6 h, read-out: Activity
A549 [4] = test: Induction of apoptosis in human A549 cells assessed as viable cells at 5 uM after 48 hrs by Annexin-V-FITC/Propidium iodide staining based flow cytometric analysis (reference value: 92.46 +/- 4.23%); type: functional; conditions: A549, 48 h, read-out: Activity
HepG2 = test: Antiproliferative activity against human HepG2 cells by MTT assay; type: functional, cell-based
A549 [5] = test: Induction of apoptosis in human A549 cells assessed as early apoptotic cells at 10 uM after 48 hrs by Annexin-V/Propidium iodide dual staining based flow cytometric analysis (reference value: 3.53 +/- 0.89%); type: functional
A549 [6] = test: Induction of apoptosis in human A549 cells assessed as necrotic cells at 5 uM after 48 hrs by Annexin-V/Propidium iodide dual staining based flow cytometric analysis (reference value: 2.57 +/- 0.39%); type: functional
A549 [7] = test: Induction of apoptosis in human A549 cells assessed as necrotic cells at 5 uM after 6 hrs by Annexin-V-FITC/Propidium iodide staining based flow cytometric analysis (reference value: 0.28 +/- 0.09%); type: functional
A549 [8] = test: Disruption of mitochondrial membrane potential in human A549 cells assessed as ratio of green to red fluorescence intensity at 20 uM after 12 hrs by JC-1 staining based flow cytometric analysis; type: functional
A549 [9] = test: Induction of apoptosis in human A549 cells assessed as early apoptotic cells at 20 uM after 48 hrs by Annexin-V/Propidium iodide dual staining based flow cytometric analysis (reference value: 3.53 +/- 0.89%); type: functional
[10] = target: RAF proto-oncogene serine/threonine-protein kinase (Homo sapiens) (UniProt P04049); test: Inhibition of C-Raf in human A549 cells after 48 hrs by Western blot analysis; type: cell-based
Sequence of RAF proto-oncogene serine/threonine-protein kinase (Homo sapiens) (P04049 whole entry): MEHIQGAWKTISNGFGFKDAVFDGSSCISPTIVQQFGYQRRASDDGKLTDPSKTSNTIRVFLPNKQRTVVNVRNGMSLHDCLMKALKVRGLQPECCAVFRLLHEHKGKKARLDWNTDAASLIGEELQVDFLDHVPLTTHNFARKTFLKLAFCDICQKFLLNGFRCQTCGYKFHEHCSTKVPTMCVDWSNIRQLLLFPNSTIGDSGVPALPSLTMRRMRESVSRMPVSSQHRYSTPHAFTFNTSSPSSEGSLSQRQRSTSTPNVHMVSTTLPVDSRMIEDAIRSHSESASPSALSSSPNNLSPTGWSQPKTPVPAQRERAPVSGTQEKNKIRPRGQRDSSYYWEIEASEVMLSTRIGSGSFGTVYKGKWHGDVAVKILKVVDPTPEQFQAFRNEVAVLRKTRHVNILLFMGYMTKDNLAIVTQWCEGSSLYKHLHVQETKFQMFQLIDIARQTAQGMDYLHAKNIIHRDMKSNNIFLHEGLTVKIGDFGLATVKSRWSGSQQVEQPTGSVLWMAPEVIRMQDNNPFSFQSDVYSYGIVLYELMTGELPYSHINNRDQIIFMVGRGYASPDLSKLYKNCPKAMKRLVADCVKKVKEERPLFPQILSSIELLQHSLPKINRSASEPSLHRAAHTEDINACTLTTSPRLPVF

A549 [11] = test: Induction of apoptosis in human A549 cells assessed as increase in ROS production at 20 uM after 6 hrs by DCF staining based luminescence spectrometric analysis relative to control; type: functional
A549 [12] = test: Induction of apoptosis in human A549 cells assessed as early apoptotic cells at 10 uM after 6 hrs by Annexin-V-FITC/Propidium iodide staining based flow cytometric analysis (reference value: 3.83 +/- 0.49%); type: functional

- IC50 (HepG2): 6.85 µM
- inhibition [10]: Dose-dependent effect
Structure (SMILES): COc1cc2ncnc(NCc3cccc(NC(=O)Nc4ccc(C(C)(C)C)cc4)c3)c2cc1OC
- Activity (A549 [1]): 4.21%
- viability at 10 µM (A549 [2]): 67.5%
- viability at 10 µM (A549 [3]): 81.8%
- viability at 5 µM (A549 [4]): 75.4%
- Activity (A549 [5]): 1.83%
- Activity (A549 [6]): 14.2%
- Activity (A549 [7]): 0.44%
- Ratio (A549 [8]): 75
- Activity (A549 [9]): 0.57%
- Activity (A549 [11]): 54.3%
- Activity (A549 [12]): 12.2%

Source: ChEMBL document CHEMBL3739323, “Design, synthesis, and biological evaluation of novel quinazolinyl-diaryl urea derivatives as potential anticancer agents” (Eur J Med Chem, 2016)
